Measurements published in the supplement of paper PMC11208160.

Assay: recombinant UMI read abundance after kanamycin selection (control-corrected) (log10(CPM+1)); higher = more efficient recombination; extreme values may be limits of the assay; sequences stand for … in AGTGCAGAGAAAATCGGCCAGTTTTCTCTGCCTGCAGTCCGCATGCCGTGGGACCCCTTGGGTTCTAACCTGTTGCCTAGATTTATGCAGCGGACTGCCTTTCTCCCAAAGTGATAAACCGG…AGGTTGGTTTCACT; site = the 11-nt donor
Summary of the method: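 Each donor and donor-binding-loop pair was tracked by a 12-nt UMI on a plasmid carrying a promoterless kanamycin gene. With a second plasmid supplying a fixed target and T7-inducible IS621 bridge recombinase, the pool was plated in Escherichia coli on IPTG (0.07 mM) plus kanamycin or unselected. Sequencing of recombinant UMIs across the donor–target junction gave counts expressed as log10(CPM+1) after replicate averaging and control-derived scaling.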
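Further: IS621 bridge recombinase in Escherichia coli cells against a fixed T5 target plasmid.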

Sequence	recombinant UMI read abundance (log10)
TATTTAGCATGGACCGGTTTTCCCGGTAATCCGTATTTGTG (site TATTTCGCTCA)	0.026
TATTTAGCATGGACCGGTTTTCCCGGTAATCCGTATTTGTG (site TATTTGGCTCA)	0.0112
TATTTAGCATGGACCGGTTTTCCCGGTAATCCGTATTTGTG (site TATTTTGCTCA)	0.0238
TATTTGGCATGGACCGGTTTTCCCGGTAATCCGTATTTGGG (site TATTTGGCTCA)	0
TATTTGGCATGGACCGGTTTTCCCGGTAATCCGTATTTGGG (site TATTTGGCTCC)	0.0427
TATTTGGCATGGACCGGTTTTCCCGGTAATCCGTATTTGGG (site TATTTGGCTCG)	0.0185
TATTTGGCATGGACCGGTTTTCCCGGTAATCCGTATTTGGG (site TATTTGGCTCT)	0.0188
TCAAATTCATGGACCGGTTTTCCCGGTAATCCGTATTTGCC (site TCAAATTCTGG)	0.558
TCAAATTCATGGACCGGTTTTCCCGGTAATCCGTATTTGCC (site TCCAATTCTGG)	0
TCAAATTCATGGACCGGTTTTCCCGGTAATCCGTATTTGCC (site TCGAATTCTGG)	0
TCAAATTCATGGACCGGTTTTCCCGGTAATCCGTATTTGCC (site TCTAATTCTGG)	0
TCAACCCCATGGACCGGTTTTCCCGGTAATCCGTATTTGGT (site TCAACCCCTAC)	0
TCAACGTCATGGACCGGTTTTCCCGGTAATCCGTATTTGCA (site TCAACGTCTTG)	0
TCAAGAACATGGACCGGTTTTCCCGGTAATCCGTATTTGGG (site TCAAGAACTCC)	0.301
TCACACACATGGACCGGTTTTCCCGGTAATCCGTATTTGAT (site TCACACACTAT)	1.33
TCACACACATGGACCGGTTTTCCCGGTAATCCGTATTTGTG (site TCACACACTCA)	0.198
TCACACTCATGGACCGGTTTTCCCGGTAATCCGTATTTGCA (site TCAAACTCTTG)	0
TCACACTCATGGACCGGTTTTCCCGGTAATCCGTATTTGCA (site TCACACTCTTG)	2.68
TCACACTCATGGACCGGTTTTCCCGGTAATCCGTATTTGCA (site TCAGACTCTTG)	0

Sequence	recombinant UMI read abundance (log10)
TCACACTCATGGACCGGTTTTCCCGGTAATCCGTATTTGCA (site TCATACTCTTG)	1.85
TCACGACCATGGACCGGTTTTCCCGGTAATCCGTATTTGTG (site TCACGACCTCA)	0.0189
TCACGGCCATGGACCGGTTTTCCCGGTAATCCGTATTTGGT (site TCACGGCCTAC)	0.00583
TCACTAACATGGACCGGTTTTCCCGGTAATCCGTATTTGGA (site TCACTAACTTC)	0.957
TCACTATCATGGACCGGTTTTCCCGGTAATCCGTATTTGCA (site ACAGTATCTTG)	0
TCACTATCATGGACCGGTTTTCCCGGTAATCCGTATTTGCA (site TCACTATCTTG)	2.41
TCACTCGCATGGACCGGTTTTCCCGGTAATCCGTATTTGAA (site TCACTCGCTTT)	1.86
TCAGACCCATGGACCGGTTTTCCCGGTAATCCGTATTTGGA (site TCAGACCCTTC)	0.201
TCAGAGACATGGACCGGTTTTCCCGGTAATCCGTATTTGAG (site TCAGAGACTCA)	0.02
TCAGAGACATGGACCGGTTTTCCCGGTAATCCGTATTTGAG (site TCAGAGACTCC)	0.288
TCAGAGACATGGACCGGTTTTCCCGGTAATCCGTATTTGAG (site TCAGAGACTCG)	0.938
TCAGAGACATGGACCGGTTTTCCCGGTAATCCGTATTTGAG (site TCAGAGACTCT)	1.82
TCAGAGACATGGACCGGTTTTCCCGGTAATCCGTATTTGCG (site ACAGAGACTCG)	1.11
TCAGAGACATGGACCGGTTTTCCCGGTAATCCGTATTTGCG (site CCAGAGACTCG)	1.66
TCAGAGACATGGACCGGTTTTCCCGGTAATCCGTATTTGCG (site GCAGAGACTCG)	0.00466
TCAGAGACATGGACCGGTTTTCCCGGTAATCCGTATTTGCG (site TAAGAGACTCG)	1.02
TCAGAGACATGGACCGGTTTTCCCGGTAATCCGTATTTGCG (site TCAAAGACTCG)	1.55
TCAGAGACATGGACCGGTTTTCCCGGTAATCCGTATTTGCG (site TCACAGACTCG)	0.316
